Source: paper PMC4278708, “A Convenient Method for the Synthesis of (Prop-2-Ynyloxy)Benzene Derivatives via Reaction with Propargyl Bromide, Their Optimization, Scope and Biological Evaluation” (PLoS ONE, 2014)
Converted amounts (≈) assume the structure as drawn.

Tests used:
urease enzyme = urease enzyme (Canavalia ensiformis, UniProt P07374); assay: biochemical; type: biochemical; settings: for inhibition at 50 µg/mL: read-out: Percentage inhibition at 50 ug/mL; for inhibition at 100 µg/mL: read-out: Percentage inhibition at 100 ug/mL
Method: Antiurease activity of the synthesized compounds was determined by using the modified phenol-hypochlorite method. Varying concentrations were used to prepare the urease inhibition curve of Thiourea (a known inhibitor of Urease) in the reaction mixture. Phosphate buffer solution of pH 7 containing 1 unit of enzyme was added about 200 µl in the test tube which was followed by the addition of 230 µl of phosphate buffer and 20 µl of thiourea from a scrupulous stock solution for the particular concentration of thiourea in the reaction mixture respectively. Test sample solutions were added instead of thiourea solution in case of test samples. The reaction mixture were mixed and incubated at 25°C for 5 min. 400 µl of urea stock (20 mM) was added in each test tube. In order to allow the action of urease on urea, all the test tubes were incubated at 40°C.
Phenol hypochlorite reagent (1150 µl) was added after 10 min incubation at 40°C. Test tubes were again incubated at 56°C for 25 min. A blue coloured complex was formed in the reaction mixture. The samples were allowed to cool for 5 min and then their absorbance values were measured at 625 nm and the %age inhibition was calculated. Experiment was repeated three times to get the SD values.

[1] = Nitric oxide (NO) scavenging activity (sodium nitropruside / Griess reagent); settings: for Percentage scavenging activity at 50 ug/ml / Percentage scavenging activity at 100 ug/ml: NO; for IC50: NO scavenging
Method: Solutions of known concentration were prepared by dissolving the synthesized compounds in appropriate solvents. A mixture of sample solution (20 µl), 10 mM sodium nitropruside solution (200 µl) and phosphate buffer of 7.4 pH (1780 µl) was taken in a dry test tube and the mixture was incubated at 37°C for 2 hours. 200 µl Griess reagent (0.3% Sulphanilic acid in glacial acetic acid, 0.1% Naphthyl ethylene diamine HCL (NED): Mixed equal volume of both solutions just before use) was added after the incubation period is over. After 20 min keeping the solution at room temperature, its absorbance at 528 nm was measured. Each sample was analyzed in triplicate. Positive control of any known antioxidant and control of all samples were run in parallel. Use of negative control was to calibrate the instrument. Sample blanks were also prepared in case if the samples were coloured. Correction in the absorbance values was made by subtracting the sample blank reading from the sample reading.

Bacillus subtillus = assay: Antibacterial activity, disc diffusion method; type: cell-based; settings: for inhibition at 100 µg/mL / IC50: Bacillus; for inhibition at 100 µg/mL: 100 ug/ml, read-out: Bacillus subtillus 100 ug/ml (percentage inhibition); for IC50: read-out: Bacillus subtillus IC50 ug/ml
Excerpt: (§1) Disc diffusion method was adopted to test the antibacterial activity of synthesized compounds 2a-10 against […] different bacterial strains. Ampiciline was used as positive control to check antibacterial activity of synthesized compounds. The bacterial strains employed were: Escherichia coli, Bacillus subtillus, Shigella flexneri, Staphylococcus aureus, Pseudomonas aeroginosa and Salmonella typhi.
(§2) Disc diffusion method was used for the determination of antibacterial activity. synthetic organic compounds were examined to evaluate their antibacterial potential against four different strains of bacteria i.e. Staphlococcus aureus (Gram + ive), Pseudomonas- aeroginosa (Gram−ive) and Escherichia coli (Gram−ive), Bacillus subtilis (Gram + ive), Salmonella typhi (Gram−ive) and Shigella flexneri (−ive). The synthetic organic compounds were dissolved in an appropriate solvent to get the solution of known concentration (5 µg/µl or 10 µg/µl). In order to prepare discs of different potencies known volume of extract/synthetic organic compound solution was applied on the discs, air dried and used. After preparation of the sterilized nutrient agar and nutrient broth medium, the sterilized nutrient agar medium was poured under aseptic conditions into sterile glass petri dishes/plates. A known volume of bacterial growth culture can also be poured on the surface of agar medium solidified in petri dishes. After inoculation petri plates were kept at room temperature for 15–30 minutes so that the poured medium is adsorbed. All the discs, including test sample, +ive and –ve controls were placed onto the inoculated nutrient agar medium solidified in petri dishes with the help of sterile forceps and incubated the petri plates at 37°C±2°C for 16–24 hours. Zone of inhibition was measured in mm using ordinary scale. Experiment was repeated three times to get the SD values.

Staphylococcus aureus = assay: Antibacterial activity, disc diffusion method; type: cell-based; settings: for inhibition at 40 µg/mL: read-out: Staphylococcus aureus 40 ug/ml (percentage inhibition); for inhibition at 100 µg/mL: read-out: Staphylococcus aureus 100 ug/ml (percentage inhibition)
Excerpt: as §1, §2

Sequence of urease enzyme (P07374 whole entry, looked up): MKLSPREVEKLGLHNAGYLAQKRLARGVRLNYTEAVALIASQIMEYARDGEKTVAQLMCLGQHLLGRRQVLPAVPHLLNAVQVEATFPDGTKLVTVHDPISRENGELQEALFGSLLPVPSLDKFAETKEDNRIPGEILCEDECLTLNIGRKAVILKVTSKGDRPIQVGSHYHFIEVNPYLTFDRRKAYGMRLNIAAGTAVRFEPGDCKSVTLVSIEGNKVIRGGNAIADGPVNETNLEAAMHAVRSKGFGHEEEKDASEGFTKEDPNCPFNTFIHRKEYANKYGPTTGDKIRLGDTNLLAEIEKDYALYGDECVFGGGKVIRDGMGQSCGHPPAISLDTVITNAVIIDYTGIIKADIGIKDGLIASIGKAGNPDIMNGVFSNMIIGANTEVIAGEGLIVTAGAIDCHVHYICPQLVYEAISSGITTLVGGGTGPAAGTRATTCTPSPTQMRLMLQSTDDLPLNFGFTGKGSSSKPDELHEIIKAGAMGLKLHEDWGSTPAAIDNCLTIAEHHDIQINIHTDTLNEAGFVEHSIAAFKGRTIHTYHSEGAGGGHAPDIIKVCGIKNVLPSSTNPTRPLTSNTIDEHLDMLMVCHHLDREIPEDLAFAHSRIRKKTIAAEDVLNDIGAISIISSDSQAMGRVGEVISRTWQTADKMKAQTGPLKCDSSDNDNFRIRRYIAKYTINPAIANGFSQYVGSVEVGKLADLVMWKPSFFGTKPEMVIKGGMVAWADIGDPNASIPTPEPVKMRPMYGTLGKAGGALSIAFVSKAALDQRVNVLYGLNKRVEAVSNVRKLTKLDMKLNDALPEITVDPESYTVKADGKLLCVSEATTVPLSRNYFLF

Row | Compound | IC50 (urease enzyme) [µM] | inhibition at 50 µg/mL (urease enzyme) [%] | inhibition at 100 µg/mL (urease enzyme) [%] | nitric oxide scavenging activity (in words) [1] | Percentage scavenging activity at 50 ug/ml [1] [%] | Percentage scavenging activity at 100 ug/ml [1] [%] | activity against Bacillus subtillus (in words) (Bacillus subtillus) | inhibition at 100 µg/mL (Bacillus subtillus) [%] | IC50 (Bacillus subtillus) [µg/mL] | activity against Staphylococcus aureus (in words) (Staphylococcus aureus) | inhibition at 40 µg/mL (Staphylococcus aureus; Staphylococcus aureus) [%] | inhibition at 100 µg/mL (Staphylococcus aureus; Staphylococcus aureus) [%] | melting point [°C] | IC50 [1] [µg/mL] | IC50 (Staphylococcus aureus; Staphylococcus aureus, read-out: Staphylococcus aureus IC50 ug/ml) [µg/mL] | urease inhibition activity (in words) (urease enzyme; 50 and 100 µg/ml tested)
1 | C#CCOc1ccc([N+](=O)[O-])cc1 [Compound 2f, 1-nitro-4-(prop-2-ynyloxy)benzene] | 360 | 44 ± 0.43 | 65.8 ± 0.18 | did not show any significant results | 32±0.10 | 47.01±0.27 | batter activity | 57.9 ± 0.25 | 87.5 (≈ 494 µM) | inactive | 18.7 ± 0.3 | 39 ± 0.4 | 129 | – | – | –
2 | C#CCOc1ccc(S(=O)(=O)c2ccc(OCC#C)cc2)cc1 [Compound 4b, 4,4′-sulfonylbis((prop-2-ynyloxy)benzene)] | 217 | 32 ± 0.28 | 74.9 ± 0.13 | – | 15.33±0.12 | 59±0.15 | – | 50.9 ± 0.34 | 97.6 (≈ 299 µM) | moderate activity | 26.9 ± 0.35 | 53 ± 0.7 | 136 | 89.6 (≈ 275 µM) | 94.2 (≈ 289 µM) | –
3 | C#CCNc1ccc(Br)c(C)c1 [Compound 8c, 4-bromo-3-methyl-N-(prop-2-ynyl)aniline] | – | 32 ± 0.38 | 45.26 ± 0.295 | – | 33.66±0.09 | 62.8±0.19 | – | 36 ± 0.39 | – | – | 15.9 ± 0.69 | 35 ± 0.2 | 40.85 | 78 (≈ 348 µM) | – | did not show any satisfactory results
